# Assay results as given in patent publication US7906520B2, “Methods for treating pain” (The General Hospital Corporation, priority 2003, dated 2011).
# Assays:
# [1] = tested on: CCI model of neuropathic pain; assay: Chronic constriction injury (CCI) model of neuropathic pain; type: in vivo, rat; details: 180 mg/kg/d i.p.
# Method: FIGS. 9A and 9B are two graphs showing the effect of DAHP on nociceptive behavior in the CCI model of neuropathic pain. […] DAHP treatment (180 mg/kg/d i.p. for 5 days) was started 3 days after surgery and nociceptive behavior was assessed daily before and after drug injection and once every second day after stopping daily drug injections.
# All procedures were performed in accordance with Massachusetts General Hospital animal care regulations. Adult male Sprague Dawley rats (200-300 g) were anesthetized with halothane. For the sciatic nerve transection (axotomy), the left sciatic nerve was exposed at the mid thigh level, ligated with 3/0 silk, and sectioned distally. The wound was sutured in two layers, and the animals were allowed to recover. For SNI the tibial and peroneal branch of the sciatic nerve were ligated and transected whereas the sural nerve was spared. For CCI, the sciatic nerve was loosely ligated with dexon 4/0 (three ligatures) and for the spinal ligation model the L5 spinal segmental nerve was ligated.
# [2] = tested on: CFA-induced paw inflammation; assay: CFA model of inflammatory pain: Hargreaves test and paw weight; type: in vivo, rat
# Method: FIGS. 11A-11E are a series of graphs showing the effect of DHAP on thermal hyperalgesia in the CFA model which is a model for inflammatory pain. […] On the left end of the graph, two doses of DAHP (180 mg/kg i.p.) were injected, the first 30 minutes before injection of CFA into the hindpaw, the second 4 hours after CFA (indicated with arrows D1 and D2). On the right, a single dose (dotted arrow D1) of DAHP (180 mg/kg i.p.) was injected 24 h after induction of paw inflammation without any treatment during the first 24 h following CFA injection. […] In FIGS. 11C-11D, the effects of systemically administered DAHP (180 mg/kg i.p. single dose; 11C) are compared with the effects of a single intrathecal dose (1 mg/kg i.t.; 11D) which was administered via a lumbar spinal catheter. In both cases, treatment was started 24 hours after CFA injection into the hindpaw. Because of slightly different baseline levels (11C compared with 11D) effects of DAHP after i.p. and i.t. treatment are additionally presented as percentage change of paw withdrawal latency (FIG. 11E) to allow for a direct comparison of both routes of administration.
# FIG. 12 is a bar graph showing the increase of the paw weight of the inflamed paw compared with the contralateral paw. Paw weight was determined 48 hours following CFA injection. The increase of the paw weight is a measure for the inflammatory paw edema and therefore allows assessment of paw inflammation.
# FIGS. 15A and 15B show the effect of the sepiapterin reductase inhibitor, N-acetyl-serotonin (NAS) on thermal hyperalgesia in the CFA model. The paw withdrawal latency (PWL) to radiant heat (Hargreaves test) is a measure for the heat sensitivity. NAS treatment (single dose of 50 mg/kg i.p.) was started 24 hours after CFA injection into the hindpaw. Data are presented as percentage change of the PWL compared with the PWL of the non-inflamed contralateral paw. […] Paw weight was determined 48 hours following CFA injection. The increase of the paw weight is a measure for the inflammatory paw edema.
# (§1) Hypersensitivity was induced using the CFA model of paw inflammation. In these experiments, BH4 was injected at time “zero” after measurement of baseline paw withdrawal latency.
# naïve rats = assay: Response to tactile and heat stimuli in naïve rats; type: in vivo, rat; details: non-injured animals
# Method: FIGS. 13A and 13B are a series of graphs showing the effects of DAHP on the response to tactile (13A) and heat stimuli (13B) in naïve rats. A single dose of DAHP (180 mg/kg i.p.) or vehicle was injected at time “zero”.
# as §1
# [3] = tested on: SNI model, nNOS knockout mice; assay: SNI model in nNOS knockout and wild-type mice; type: in vivo; details: mechanical or cold stimuli
# Method: In this figure, closed circles represent nNOS knockout mice with DAHP; open circles, nNOS knock out mice with vehicle; closed triangles, wild type mice with DAHP; and open triangles, wild type mice with vehicle. […] In this figure, closed triangles represent L-NAME administration; open circles, L-NAME+DAHP administration; closed circles, DAHP administration; and open triangles, vehicle administration. L-NAME was administered at 25 mg/kg, i.p., single dose, and DAHP was administered at 120 mg/kg, i.p., single dose. The antinociceptive efficacy of this high L-NAME dose is weaker (about 50%) than that of a moderate dose of DAHP.
# dorsal horn neurons = assay: TUNEL staining of apoptotic profiles in L4/L5 dorsal horn after SNI; type: in vivo; details: DAHP 180 mg/kg/day i.p., 7 days after SNI
# Method: FIG. 25 is a bar graph showing the number of apoptotic cell profiles, using TUNEL staining, observed in the L4/L5 dorsal horn 7 days after SNI surgery of animals treated with either 180 mg/kg/day DAHP or vehicle control. Apoptotic neurons were detected by in situ TUNEL labeling and counted by a blinded observer.
smiles,measurement,setting,value
"Nc1cc(O)nc(N)n1 [DAHP, 2,4-Diamino-6-hydroxypyrimidine]",analgesic effects in CCI model,[1],analgesic effects of DAHP were further confirmed
same,thermal hyperalgesia,[2]; DAHP 1 mg/kg i.t. via lumbar spinal catheter,reduced thermal hyperalgesia
same,paw withdrawal latency of the non-inflamed contralateral paw,[2]; DAHP 180 mg/kg i.p.,no effect
same,thermal hyperalgesia,"[2]; DAHP 180 mg/kg i.p., 30 min before or 24 h after CFA",reduced thermal hyperalgesia
same,inflammatory paw edema (paw weight),"[2]; DAHP treated vs control, 48 hours after CFA",no difference in the degree of paw inflammation
same,"motor activity, von Frey and Hargreaves tests",naïve rats; DAHP 180 mg/kg i.p. single dose,did not result in a difference in motor activity
same,"sedation, general level of activity",naïve rats; DAHP,no obvious signs of sedation
same,anti-nociceptive effects in nNOS knockout vs wild-type mice,[3],do not differ between nNOS knockout mice and wild-type mice
same,apoptosis of dorsal horn neurons (TUNEL),dorsal horn neurons,protects dorsal horn neurons from apoptosis
